Assay [1] concerns KG-1 Acute myelogenous leukaemia. Kind of assay: In vitro viability assay, CellTiterGlo. Format: cell-based. As to conditions: KG-1, CellTiterGlo, 72 h. Put shortly: (§1)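 Cells were treated for ~72 h with a 9-point, 3.16-fold dilution series, 198 μM to 19.9 nM final, in 0.5% DMSO final, in duplicate. Viability was read by CellTiterGlo luminescence.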
Background: In ATP-based viability assays light output follows the ATP content of the culture.

For assay [2], the system named is HL-60 Promyelocytic leukaemia. The assay can be described thus: In vitro viability assay, CellTiterGlo. The conditions noted are these: HL-60, CellTiterGlo, 72 h. Type of assay: cell-based. In outline: as §1
Assay [3] has as its system K562. The assay can be described thus: In vitro cytotoxicity, MTS assay. Format: cell-based. As to conditions: Homo sapiens, 72 h, read-out: Inhibitory concentration (IC50) K562. In outline:
(§2)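 Cells exposed 72 h at 37° C, 5% CO2 to serial dilutions from 100 μM to 0.02 μM. MTS added for 4 h more, absorbance read at 490 nm. Viability relative to untreated cells; IC50 is the concentration giving 50% loss of viability.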

Assay [4] relates to KG1. Kind of assay: In vitro cytotoxicity, MTS assay. Format: cell-based. As to conditions: Homo sapiens, KG-1, 72 h, read-out: Inhibitory concentration (IC50) KG1. Put shortly: as §2
(Tetrazolium dyes change colour on reduction, which living cells bring about.)

Assay [5] concerns U937. The assay can be described thus: In vitro cytotoxicity, MTS assay. Format: cell-based. The conditions noted are these: Homo sapiens, U-937, 72 h, read-out: Inhibitory concentration (IC50) U937. In outline: as §2
Assay [6] has as its system NB4R2. Kind of assay: In vitro cytotoxicity, MTS assay. Format: cell-based. As to conditions: 72 h, read-out: Inhibitory concentration (IC50) NB4R2. Put shortly:
as §2

The test system of assay [7] is NB4. The assay can be described thus: In vitro cytotoxicity, MTS assay. Format: cell-based. The conditions noted are these: Homo sapiens, NB-4, 72 h, read-out: Inhibitory concentration (IC50) NB4. Put shortly: as §2
In assay [8] the test system is HL-60. The assay can be described thus: In vitro cytotoxicity, MTS assay. Format: cell-based. The conditions noted are these: Homo sapiens, 72 h, read-out: Inhibitory concentration (IC50) HL-60. In outline: as §2
Assay [9] has as its system MCF-7 Mammary epithelial adenocarcinoma. Kind of assay: In vitro viability assay, CellTiterGlo. The conditions noted are these: MCF-7, CellTiterGlo, 72 h. Type of assay: cell-based, human. In outline: as §1
Where [10] appears, read: Homo sapiens, read-out: EC50 (μM) Ab.

One compound from patent US10906929B2, “Phosphoramidate nucleoside derivatives as anticancer agents” (NuCana plc, priority 2016, dated 2021) can be followed below.

SMILES strings stand for the structures. Some results are limits rather than exact numbers.

For `Nc1nc(Cl)nc2c1ncn2[C@H]1C[C@H](O)[C@@H](CO)O1` [Cladribine, cladribine, reference compound], the EC50 is 0.17 µM in [1] (setting [10]); less than 0.019 µM in assay [2] (setting [10]); more than 198 µM in assay [9] (Homo sapiens, MCF7, read-out: EC50 (μM) Ab). In addition, the “Top Inhibition (%)” value in [1] came out at 93.5%; in [2], 85%; in [9], 36.3%. The IC50 in assay [3] stood at 530 nM; in [4], 60 nM; in assay [5], 20 nM; in assay [6] it was 60 nM; in assay [7], 40 nM; in assay [8], 90 nM.

The term EC50 denotes the midpoint of the concentration-response curve.
